Measurements from US8785457B2 (Cellzome Limited, priority 2009, dated 2014).

Tests used:
[1] = test system: S6RP serine-240/244 phosphorylation; test: In vitro Phospho-S6 cellular assay (pS6RP S240/244) in HEK293T/17 cells; format: cell-based; details: Homo sapiens, 2 hours, read-out: pS6 IC50
How it was run: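 HEK293T/17 cells were seeded at 40,000 (pS6RP) or 80,000 (pAkt) cells/well in DMEM with 2% FCS. They were exposed to 8 compound concentrations (0.1% DMSO) for 2 h at 37 °C and then lysed. Phosphoprotein was quantified by MesoScale electrochemiluminescence sandwich immunoassay, and the sigmoidal variable-slope dose-response was fitted.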

[2] = target: T1, DNA-dependent protein kinase (DNA-PK) (Homo sapiens, UniProt P78527); test: kinobeads assay, DNA-PK; format: binding; details: Further Kinobeads Data; read-out: DNAPK
T1 construct: endogenous in cells; host or cells: Jurkat, clone E6-1 (ATCC TIB-152) cell lysate
How it was run: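 IC50 values came from dose-response curves after test compound (1:3 series) competed with an immobilized phenylmorpholin-chromen affinity matrix for kinases in Jurkat lysate at 5 mg/mL protein. Eluted captured DNA-PK and PI3Kδ were measured by specific-antibody dot blot and infrared imaging. Buffer was Tris pH 7.4, NP40, MgCl2, NaCl, vanadate, DTT, NaF.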

T1 sequence (P78527 whole entry): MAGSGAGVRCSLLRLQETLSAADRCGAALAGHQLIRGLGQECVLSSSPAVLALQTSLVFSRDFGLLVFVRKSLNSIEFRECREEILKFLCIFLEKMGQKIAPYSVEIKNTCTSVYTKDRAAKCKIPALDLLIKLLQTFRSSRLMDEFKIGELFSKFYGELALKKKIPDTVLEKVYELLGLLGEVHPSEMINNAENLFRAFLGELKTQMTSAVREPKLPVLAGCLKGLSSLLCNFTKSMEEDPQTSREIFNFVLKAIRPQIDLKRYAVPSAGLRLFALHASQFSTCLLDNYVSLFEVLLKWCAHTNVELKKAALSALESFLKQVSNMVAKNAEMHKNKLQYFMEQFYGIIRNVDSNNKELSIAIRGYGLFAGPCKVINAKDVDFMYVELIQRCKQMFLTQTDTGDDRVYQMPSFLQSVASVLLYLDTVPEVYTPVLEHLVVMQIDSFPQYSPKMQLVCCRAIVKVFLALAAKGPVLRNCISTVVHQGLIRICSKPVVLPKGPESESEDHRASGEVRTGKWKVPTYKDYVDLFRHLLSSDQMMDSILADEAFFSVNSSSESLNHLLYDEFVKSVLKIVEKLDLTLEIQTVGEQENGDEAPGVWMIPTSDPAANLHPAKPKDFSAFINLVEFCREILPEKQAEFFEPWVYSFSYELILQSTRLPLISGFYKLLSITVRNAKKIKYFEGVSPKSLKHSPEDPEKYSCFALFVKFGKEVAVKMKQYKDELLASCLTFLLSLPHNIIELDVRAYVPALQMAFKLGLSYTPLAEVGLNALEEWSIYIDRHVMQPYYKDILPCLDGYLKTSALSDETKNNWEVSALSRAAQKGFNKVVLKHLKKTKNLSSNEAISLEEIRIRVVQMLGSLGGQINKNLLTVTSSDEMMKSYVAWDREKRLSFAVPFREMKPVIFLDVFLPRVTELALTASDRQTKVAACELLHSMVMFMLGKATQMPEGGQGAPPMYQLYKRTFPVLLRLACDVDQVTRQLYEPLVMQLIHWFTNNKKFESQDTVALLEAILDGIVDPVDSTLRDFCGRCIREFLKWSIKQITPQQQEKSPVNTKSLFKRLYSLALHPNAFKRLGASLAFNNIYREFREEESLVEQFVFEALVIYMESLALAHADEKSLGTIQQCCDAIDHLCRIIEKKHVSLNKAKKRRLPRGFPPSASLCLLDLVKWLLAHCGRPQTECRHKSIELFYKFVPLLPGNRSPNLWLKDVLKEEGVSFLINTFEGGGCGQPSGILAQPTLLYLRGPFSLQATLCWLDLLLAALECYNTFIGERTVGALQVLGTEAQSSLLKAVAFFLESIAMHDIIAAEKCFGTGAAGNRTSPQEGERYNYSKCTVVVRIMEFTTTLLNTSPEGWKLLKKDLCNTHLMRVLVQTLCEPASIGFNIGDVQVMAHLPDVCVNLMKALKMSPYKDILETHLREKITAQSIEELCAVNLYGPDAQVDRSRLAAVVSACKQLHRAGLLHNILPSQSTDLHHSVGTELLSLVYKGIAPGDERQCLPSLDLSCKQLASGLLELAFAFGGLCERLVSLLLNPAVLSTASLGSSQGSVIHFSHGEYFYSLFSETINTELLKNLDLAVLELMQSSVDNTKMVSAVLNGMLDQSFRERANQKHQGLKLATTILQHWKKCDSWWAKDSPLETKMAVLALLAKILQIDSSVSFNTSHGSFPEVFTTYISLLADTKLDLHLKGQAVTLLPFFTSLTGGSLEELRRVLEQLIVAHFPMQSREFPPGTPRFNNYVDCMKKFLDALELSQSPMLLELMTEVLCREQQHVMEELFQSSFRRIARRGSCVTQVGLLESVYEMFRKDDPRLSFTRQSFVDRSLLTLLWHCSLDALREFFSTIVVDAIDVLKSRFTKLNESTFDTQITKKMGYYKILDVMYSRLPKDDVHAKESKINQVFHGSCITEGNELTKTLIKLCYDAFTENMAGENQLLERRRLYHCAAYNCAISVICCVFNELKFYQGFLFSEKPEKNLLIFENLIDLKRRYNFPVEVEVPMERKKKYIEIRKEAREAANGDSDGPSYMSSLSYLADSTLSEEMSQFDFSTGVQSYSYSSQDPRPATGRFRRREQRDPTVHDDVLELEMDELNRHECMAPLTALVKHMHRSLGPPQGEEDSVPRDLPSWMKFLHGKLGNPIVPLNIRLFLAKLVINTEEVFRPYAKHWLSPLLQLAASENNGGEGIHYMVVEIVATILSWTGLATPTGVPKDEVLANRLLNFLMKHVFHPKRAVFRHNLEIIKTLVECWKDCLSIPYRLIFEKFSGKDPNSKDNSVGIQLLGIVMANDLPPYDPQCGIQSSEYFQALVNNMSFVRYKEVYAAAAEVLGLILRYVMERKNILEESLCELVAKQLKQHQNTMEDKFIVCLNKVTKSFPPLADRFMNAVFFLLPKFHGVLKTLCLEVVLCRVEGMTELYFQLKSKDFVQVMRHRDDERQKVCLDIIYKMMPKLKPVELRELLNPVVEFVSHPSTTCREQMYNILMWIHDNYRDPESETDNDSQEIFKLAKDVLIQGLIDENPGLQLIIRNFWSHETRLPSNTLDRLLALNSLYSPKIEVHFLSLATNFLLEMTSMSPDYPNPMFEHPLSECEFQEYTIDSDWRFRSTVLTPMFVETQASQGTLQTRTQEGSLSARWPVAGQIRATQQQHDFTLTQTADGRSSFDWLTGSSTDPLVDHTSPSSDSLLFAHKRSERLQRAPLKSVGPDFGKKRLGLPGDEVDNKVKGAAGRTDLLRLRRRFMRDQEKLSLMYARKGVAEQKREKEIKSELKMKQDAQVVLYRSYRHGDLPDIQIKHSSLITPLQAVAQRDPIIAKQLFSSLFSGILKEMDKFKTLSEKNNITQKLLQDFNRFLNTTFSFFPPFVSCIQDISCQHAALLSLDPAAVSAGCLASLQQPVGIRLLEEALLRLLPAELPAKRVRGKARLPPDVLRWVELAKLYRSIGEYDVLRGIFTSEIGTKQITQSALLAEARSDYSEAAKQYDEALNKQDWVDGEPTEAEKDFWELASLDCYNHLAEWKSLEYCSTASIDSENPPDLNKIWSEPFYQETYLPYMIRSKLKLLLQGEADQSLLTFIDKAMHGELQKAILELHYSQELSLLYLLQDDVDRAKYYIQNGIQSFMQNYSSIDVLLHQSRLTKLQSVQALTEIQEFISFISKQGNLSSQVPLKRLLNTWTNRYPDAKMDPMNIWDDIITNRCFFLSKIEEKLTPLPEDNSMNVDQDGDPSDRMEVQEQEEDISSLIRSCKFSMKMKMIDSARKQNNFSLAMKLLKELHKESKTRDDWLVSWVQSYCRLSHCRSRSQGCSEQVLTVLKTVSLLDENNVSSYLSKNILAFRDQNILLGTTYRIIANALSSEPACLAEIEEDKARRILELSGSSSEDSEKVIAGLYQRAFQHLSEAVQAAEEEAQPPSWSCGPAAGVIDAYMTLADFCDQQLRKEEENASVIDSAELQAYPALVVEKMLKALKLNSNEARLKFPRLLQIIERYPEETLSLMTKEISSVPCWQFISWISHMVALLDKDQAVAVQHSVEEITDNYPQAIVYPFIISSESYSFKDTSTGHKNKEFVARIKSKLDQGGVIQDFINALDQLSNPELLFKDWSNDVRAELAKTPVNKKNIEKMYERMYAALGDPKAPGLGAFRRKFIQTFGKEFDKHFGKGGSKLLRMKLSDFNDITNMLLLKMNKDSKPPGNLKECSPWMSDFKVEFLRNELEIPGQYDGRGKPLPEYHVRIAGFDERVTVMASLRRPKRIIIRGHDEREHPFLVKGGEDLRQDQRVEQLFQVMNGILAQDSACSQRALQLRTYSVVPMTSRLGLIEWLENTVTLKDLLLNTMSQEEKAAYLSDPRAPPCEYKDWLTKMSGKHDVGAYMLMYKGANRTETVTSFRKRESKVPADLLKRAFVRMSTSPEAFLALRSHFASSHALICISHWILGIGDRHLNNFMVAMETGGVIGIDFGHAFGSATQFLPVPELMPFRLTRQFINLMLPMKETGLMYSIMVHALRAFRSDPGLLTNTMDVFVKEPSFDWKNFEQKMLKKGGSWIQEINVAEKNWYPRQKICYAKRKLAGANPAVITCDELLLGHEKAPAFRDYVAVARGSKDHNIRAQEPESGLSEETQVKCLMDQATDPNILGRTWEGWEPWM

IC50 [1]	IC50 [2]	SMILES
545 nM	> 10000 nM	CC(C)C(=O)N1Cc2nc(-c3ccc(NC(=O)NC4CC4)cc3F)nc(N3CCOC[C@@H]3C)c2C1 [Example 174, (S)-1-cyclopropyl-3-(3-fluoro-4-(6-isobutyryl-4-(3-methylmorpholino)-6,7-dihydro-5H-pyrrolo[3,4-d]pyrimidin-2-yl)phenyl)urea]
76 nM	1000 to 10000 nM	CCNC(=O)Nc1ccc(-c2nc3c(c(N4CCOC[C@@H]4C)n2)CCN(C(=O)N(C)C)C3)c(F)c1 [Example 176, (S)-2-(4-(3-ethylureido)-2-fluorophenyl)-N,N-dimethyl-4-(3-methylmorpholino)-5,6-dihydropyrido[3,4-d]pyrimidine-7(8H)-carboxamide]
410 nM	> 10000 nM	C[C@H]1COCCN1c1nc(-c2ccc(NC(=O)NC3CC3)cc2F)nc2c1CN(S(C)(=O)=O)C2 [Example 177, (S)-1-cyclopropyl-3-(3-fluoro-4-(4-(3-methylmorpholino)-6-(methylsulfonyl)-6,7-dihydro-5H-pyrrolo[3,4-d]pyrimidin-2-yl)phenyl)urea]
163 nM	> 10000 nM	C[C@H]1COCCN1c1nc(-c2ccc(NC(=O)NC3CC3)cc2F)nc2c1CN(C(=O)N(C)C)C2 [Example 178, (S)-2-(4-(3-cyclopropylureido)-2-fluorophenyl)-N,N-dimethyl-4-(3-methylmorpholino)-5H-pyrrolo[3,4-d]pyrimidine-6(7H)-carboxamide]
63 nM	> 10000 nM	CCOC(=O)N1Cc2nc(-c3ccc(NC(=O)NC4CC4)cc3F)nc(N3CCOC[C@H]3C)c2C1 [Example 179, (R)-ethyl 2-(4-(3-cyclopropylureido)-2-fluorophenyl)-4-(3-methylmorpholino)-5H-pyrrolo[3,4-d]pyrimidine-6(7H)-carboxylate]
58 nM	1000 to 10000 nM	COC(=O)N1Cc2nc(-c3ccc(NC(=O)NC4CC4)cc3F)nc(N3CCOC[C@H]3C)c2C1 [Example 180, (R)-methyl 2-(4-(3-cyclopropylureido)-2-fluorophenyl)-4-(3-methylmorpholino)-5H-pyrrolo[3,4-d]pyrimidine-6(7H)-carboxylate]
962 nM	1000 to 10000 nM	COC(=O)N1Cc2nc(-c3ccc(NC(=O)NCCO)cc3F)nc(N3CCOC[C@@H]3C)c2C1 [Example 181, (S)-methyl 2-(2-fluoro-4-(3-(2-hydroxyethyl)ureido)phenyl)-4-(3-methylmorpholino)-5H-pyrrolo[3,4-d]pyrimidine-6(7H)-carboxylate]
60 nM	> 10000 nM	COC(=O)N1Cc2nc(-c3ccc(NC(=O)NCCF)cc3F)nc(N3CCOC[C@@H]3C)c2C1 [Example 183, (S)-methyl 2-(2-fluoro-4-(3-(2-fluoroethyl)ureido)phenyl)-4-(3-methylmorpholino)-5H-pyrrolo[3,4-d]pyrimidine-6(7H)-carboxylate]
360 nM	> 10000 nM	CC(C)N1Cc2nc(-c3ccc(NC(=O)NCCF)cc3F)nc(N3CCOCC3)c2C1 [Example 185, 1-(3-fluoro-4-(6-isopropyl-4-morpholino-6,7-dihyro-5H-pyrrolo[3,4-d]pyrimidin-2-yl)phenyl)-3-(2-fluoroethyl)urea]
197 nM	> 10000 nM	CC(C)N1Cc2nc(-c3ccc(NC(=O)NCCF)cc3F)nc(N3CCOC[C@@H]3C)c2C1 [Example 186, (S)-1-(3-fluoro-4-(6-isopropyl-4-(3-methylmorpholino)-6,7-dihydro-5H-pyrrolo[3,4-d]pyrimidin-2-yl)phenyl)-3-(2-fluoroethyl)urea]
563 nM	> 10000 nM	CC(C)N1Cc2nc(-c3ccc(NC(=O)NCCO)cc3F)nc(N3CCOC[C@@H]3C)c2C1 [Example 187, (S)-1-(3-fluoro-4-(6-isopropyl-4-(3-methylmorpholino)-6,7-dihydro-5H-pyrrolo[3,4-d]pyrimidin-2-yl)phenyl)-3-(2-hydroxyethyl)urea]
218 nM	> 10000 nM	C[C@@H]1COCCN1c1nc(-c2ccc(NC(=O)NC3CC3)cc2F)nc2c1CN(C(=O)C1CC1)C2 [Example 188, (R)-1-(4-(6-(cyclopropanecarbonyl)-4-(3-methylmorpholino)-6,7-dihydro-5H-pyrrolo[3,4-d]pyrimidin-2-yl)-3-fluorophenyl)-3-cyclopropylurea]
133 nM	> 10000 nM	CC(C)NC(=O)N1CCc2c(nc(-c3ccc(NC(=O)NC4CC4)cc3F)nc2N2CCOC[C@@H]2C)C1 [Example 189, (S)-2-(4-(3-cyclopropylureido)-2-fluorophenyl)-N-isopropyl-4-(3-methylmorpholino)-5,6-dihydropyrido[3,4-d]pyrimidine-7(8H)-carboxamide]
351 nM	> 10000 nM	C[C@@H]1COCCN1c1nc(-c2ccc(NC(=O)NC3CC3)cc2F)nc2c1CN(C=O)C2 [Example 190, (R)-1-cyclopropyl-3-(3-fluoro-4-(6-formyl-4-(3-methylmorpholino)-6,7-dihydro-5H-pyrrolo[3,4-d]pyrimidin-2-yl)phenyl)urea]
180 nM	> 10000 nM	C[C@@H]1COCCN1c1nc(-c2ccc(NC(=O)NC3CC3)cc2F)nc2c1CN(S(C)(=O)=O)C2 [Example 191, (R)-1-cyclopropyl-3-(3-fluoro-4-(4-(3-methylmorpholino)-6-(methylsulfonyl)-6,7-dihydro-5H-pyrrolo[3,4-d]pyrimidin-2-yl)phenyl)urea]
